Patent US20220151230A1, “SPECIFICALLY SUBSTITUTED 3-(2-HALOGEN-6-ALKYL-4-PROPINYLPHENYL)-3-PYRROLIN-2-ONES AND TO THE USE THEREOF AS HERBICIDES” (Bayer Aktiengesellschaft, priority 2019, published 2022)

Assays:
[1] = test system: LOLRI; test: Pre-emergence herbicidal effect against LOLRI; assay type: in vivo, Lolium rigidum; details: 320 g/ha, scored visually after 3 weeks vs untreated controls, 100% = plants have died
Excerpt: (§1) Seeds of monocotyledonous and dicotyledonous weed plants and crop plants are laid out in sandy loam soil in wood-fiber pots and covered with soil. The compounds of the invention, formulated in the form of wettable powders (WP) or as emulsion concentrates (EC), are then applied to the surface of the covering soil as aqueous suspension or emulsion at a water application rate equating to 600 to 800 L/ha with addition of 0.2% wetting agent.
(§2) After the treatment, the pots are placed in a greenhouse and kept under good growth conditions for the trial plants. The damage to the test plants is scored visually after a test period of 3 weeks by comparison with untreated controls (herbicidal activity in percent (%): 100% activity=the plants have died, 0% activity=like control plants).

[2] = test system: ECHCG; test: Pre-emergence herbicidal effect against ECHCG; assay type: in vivo, Echinochloa crus-galli; details: 320 g/ha, scored visually after 3 weeks vs untreated controls, 100% = plants have died
Excerpt: as §1, §2

[3] = test system: ECHCG; test: Post-emergence herbicidal effect against ECHCG; assay type: in vivo, Echinochloa crus-galli; details: one-leaf stage, 80 g/ha, assessed visually after about 3 weeks vs untreated controls, 100% = plants have died
Description: (§3) Seeds of monocotyledonous and dicotyledonous weed and crop plants are laid out in sandy loam soil in wood-fiber pots, covered with soil and cultivated in a greenhouse under good growth conditions. 2 to 3 weeks after sowing, the test plants are treated at the one-leaf stage. The compounds of the invention, formulated in the form of wettable powders (WP) or as emulsion concentrates (EC), are then sprayed onto the green parts of the plants as aqueous suspension or emulsion at a water application rate equating to 600 to 800 l/ha with addition of 0.2% wetting agent. After the test plants have been left to stand in the greenhouse under optimal growth conditions for about 3 weeks, the action of the preparations is assessed visually in comparison to untreated controls (herbicidal action in percent (%): 100% activity=the plants have died, 0% activity=like control plants).

[4] = test system: ALOMY; test: Pre-emergence herbicidal effect against ALOMY; assay type: in vivo, Alopecurus myosuroides; details: 320 g/ha, scored visually after 3 weeks vs untreated controls, 100% = plants have died
Excerpt: as §1, §2

[5] = test system: SETVI; test: Pre-emergence herbicidal effect against SETVI; assay type: in vivo, Setaria viridis; details: 320 g/ha, scored visually after 3 weeks vs untreated controls, 100% = plants have died
Excerpt: as §1, §2

[6] = test system: LOLRI; test: Post-emergence herbicidal effect against LOLRI; assay type: in vivo, Lolium rigidum; details: one-leaf stage, 80 g/ha, assessed visually after about 3 weeks vs untreated controls, 100% = plants have died
Description: as §3

[7] = test system: SETVI; test: Post-emergence herbicidal effect against SETVI; assay type: in vivo, Setaria viridis; details: one-leaf stage, 80 g/ha, assessed visually after about 3 weeks vs untreated controls, 100% = plants have died
Description: as §3

[8] = test system: AVEFA; test: Pre-emergence herbicidal effect against AVEFA; assay type: in vivo, Avena fatua; details: 320 g/ha, scored visually after 3 weeks vs untreated controls, 100% = plants have died
Excerpt: as §1, §2

[9] = test system: AVEFA; test: Post-emergence herbicidal effect against AVEFA; assay type: in vivo, Avena fatua; details: one-leaf stage, 80 g/ha, assessed visually after about 3 weeks vs untreated controls, 100% = plants have died
Description: as §3

[10] = test system: DIGSA; test: Pre-emergence herbicidal effect against DIGSA; assay type: in vivo, Digitaria sanguinalis; details: 320 g/ha, scored visually after 3 weeks vs untreated controls, 100% = plants have died
Excerpt: as §1, §2

[11] = test system: ALOMY; test: Post-emergence herbicidal effect against ALOMY; assay type: in vivo, Alopecurus myosuroides; details: one-leaf stage, 80 g/ha, assessed visually after about 3 weeks vs untreated controls, 100% = plants have died
Description: as §3

[12] = test system: DIGSA; test: Post-emergence herbicidal effect against DIGSA; assay type: in vivo, Digitaria sanguinalis; details: one-leaf stage, 80 g/ha, assessed visually after about 3 weeks vs untreated controls, 100% = plants have died
Description: as §3

Compound	Pre-emergence action [%] against LOLRI [1] [%]	Pre-emergence action [%] against ECHCG [2] [%]	Post-emergence action [%] against ECHCG [3] [%]	Pre-emergence action [%] against ALOMY [4] [%]	Pre-emergence action [%] against SETVI [5] [%]	Post-emergence action [%] against LOLRI [6] [%]	Post-emergence action [%] against SETVI [7] [%]	Pre-emergence action [%] against AVEFA [8] [%]	Post-emergence action [%] against AVEFA [9] [%]	Pre-emergence action [%] against DIGSA [10] [%]	Post-emergence action [%] against ALOMY [11] [%]	Post-emergence action [%] against DIGSA [12] [%]
CC#Cc1cc(C)c(C2=C(OC(=O)OCC)C3(CCCC(OCCOC)C3)NC2=O)c(Br)c1 (centres unmarked) [Example Q4]	100	100	100	100	100	100	100	100	90	100	100	–
CC#Cc1cc(Cl)c(C2=C(OC(=O)OC)C3(CCC(OCC)CC3)NC2=O)c(CC)c1 (centres unmarked) [Example P26]	100	90	100	100	100	–	90	90	–	100	90	80
CC#Cc1cc(Br)c(C2=C(OC(=O)OCC)C3(CCC(OC)CC3)NC2=O)c(C2CC2)c1 (centres unmarked) [Example P35]	100	100	100	100	100	100	100	100	–	100	100	100
CC#Cc1cc(Cl)c(C2=C(OC(=O)OCC)C3(CCC(OCC)CC3)NC2=O)c(CC)c1 (centres unmarked) [Example P22]	100	100	90	100	100	–	100	90	–	100	–	90
CC#Cc1cc(Cl)c(C2=C(OC(=O)OC)C3(CCC(OC)CC3)NC2=O)c(CC)c1 (centres unmarked) [Example P24]	100	90	100	100	100	–	100	100	90	100	100	90
CC#Cc1cc(C)c(C2=C(OC(=O)OCC)C3(CCCC(OCCC)C3)NC2=O)c(Br)c1 (centres unmarked) [Example Q3]	100	100	100	100	100	100	100	100	–	100	100	100
CC#Cc1cc(Br)c(C2=C(OC(=O)OCC)C3(CCCC(OCCOC)C3)NC2=O)c(C2CC2)c1 (centres unmarked) [Example Q2]	100	100	100	100	100	100	100	100	–	100	100	100
CC#Cc1cc(Cl)c(C2=C(OC(=O)OC(C)(C)C)C3(CCC(OC)CC3)NC2=O)c(CC)c1 (centres unmarked) [Example P30]	100	90	–	100	100	–	100	80	80	100	90	–
CC#Cc1cc(Cl)c(C2=C(OC(=O)OCC)C3(CCC(OC)CC3)NC2=O)c(C2CC2)c1 (centres unmarked) [Example P33]	100	100	100	100	100	100	100	100	100	100	100	–
CC#Cc1cc(C)c(C2=C(OC(=O)OCC)C3(CCCC(OCC(C)C)C3)NC2=O)c(Cl)c1 (centres unmarked) [Example Q8]	100	100	100	100	100	90	100	100	100	100	100	–
CC#Cc1cc(Cl)c(C2=C(OC(=O)C(C)C)C3(CCC(OC)CC3)NC2=O)c(CC)c1 (centres unmarked) [Example P25]	90	100	100	100	100	–	100	100	–	100	90	100
CC#Cc1cc(Br)c(C2=C(O)C3(CCCC(OCCOC)C3)NC2=O)c(CC)c1 (centres unmarked) [Example D8]	–	–	90	80	100	80	90	–	80	–	100	–
